Data published in paper PMC9157191, “The ex vivo pharmacology of HIV-1 antiretrovirals differs between macaques and humans” (iScience, 2022).
One block for each compound: values may come before it.

Columns and labels:
[1] = Drug concentrations in Rhesus macaque ecto-cervical tissue explants (LC-MS/MS); format: in vitro ADME, Rhesus macaque (Macaca mulatta); conditions: NHP ecto-cervical explants; harvesting schedule of the assay
[2] = Drug concentrations in Rhesus macaque colorectal tissue explants (LC-MS/MS); format: in vitro ADME, Rhesus macaque (Macaca mulatta); conditions: for AUC3h–15d / Cmax: Rh. macaque colorectal explants, intracellular
[3] = Drug concentrations in Rhesus macaque vaginal tissue explants (LC-MS/MS); format: in vitro ADME, Rhesus macaque (Macaca mulatta); conditions: for AUC3h–15d / Cmax: Rh. macaque vaginal explants, intracellular
[4] = Drug concentrations in human ecto-cervical tissue explants (LC-MS/MS); conditions: human ecto-cervical explants; harvesting schedule of the assay
[5] = Drug concentrations in human colorectal tissue explants (LC-MS/MS); format: in vitro ADME; conditions: for AUC3h-15d / Cmax: Human colorectal explants, intracellular
HIV-1YU.2 K65RM184V = experiment: microbe, parasite or virus in culture; format: cell-based; conditions: Human colorectal explants;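 on p24 AUC3-15: high arm above the IC50 and low arm below the IC50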
HIV-1/SIV/SHIV isolates = format: cell-based
HIV-1YU.2 K65R = experiment: microbe, parasite or virus in culture; format: cell-based; conditions: Human colorectal explants
SIVmac32H K65RM184V [6] = experiment: microbe, parasite or virus in culture; format: cell-based; conditions: for p27 AUC3-15: Rhesus macaque vaginal explants
HIV-1BaL [7] = experiment: microbe, parasite or virus in culture; format: cell-based; conditions: Human colorectal explants
HIV-1BaL [8] = experiment: microbe, parasite or virus in culture; format: cell-based; conditions: Human cervical explants
SIVmac32H [9] = experiment: microbe, parasite or virus in culture; format: cell-based; conditions: for p27 AUC3-15: Rhesus macaque vaginal explants
HIV-1YU.2 M184V = experiment: microbe, parasite or virus in culture; format: cell-based; conditions: Human colorectal explants
SIVmac32H [10] = experiment: microbe, parasite or virus in culture; format: cell-based; conditions: for p27 AUC3-15: Rhesus macaque colorectal explants
HIV-1YU.2 = experiment: microbe, parasite or virus in culture; format: cell-based; conditions: Human colorectal explants
SIVmac32H K65RM184V [11] = experiment: microbe, parasite or virus in culture; format: cell-based; conditions: for p27 AUC3-15: Rhesus macaque colorectal explants
RT-SHIV [12] = experiment: tissue or blood; format: cell-based; conditions: for p27 AUC3-15: Rhesus macaque colorectal explants
[13] = system: HIV-1YU.2 L313T/I321V and V314T/I321V; format: cell-based
SIVmac32H [14] = experiment: microbe, parasite or virus in culture; format: cell-based; conditions: for p27 AUC3-15: Rhesus macaque cervical explants
SIVmac32H K65RM184V [15] = experiment: microbe, parasite or virus in culture; format: cell-based; conditions: for p27 AUC3-15: Rhesus macaque cervical explants
RT-SHIV [16] = experiment: tissue or blood; format: cell-based; conditions: for p27 AUC3-15: Rhesus macaque vaginal explants
[17] = Comb. gel, High [ ]: TFV 70 µM + MVC […]
[18] = Comb. gel, Low [ ]: TFV 7 µM + MVC […]
[19] = Single gel, High [ ]: TFV 70 µM
[20] = high concentration: TFV 70 µM, MVC […], or TFV 70 µM + MVC […]
[21] = low concentration: TFV 7 µM, MVC […], or TFV 7 µM + MVC […]
[22] = NHP colorectal explants, day 15

TFVdp detection [1]: neither detected
AUC3h–15d [2, 17]: 148.40 fmol·days/mg
Cmax [2, 17]: 29.12 fmol/mg
AUC3h–15d [2, 18]: 107.96 fmol·days/mg
Cmax [2, 18]: 24.43 fmol/mg
AUC3h–15d [2, 19]: 176.28 fmol·days/mg
Cmax [2, 19]: 41.93 fmol/mg
AUC3h–15d ([2]; Single gel, Low [ ]: TFV 7 µM): 164.03 fmol·days/mg
Cmax ([2]; Single gel, Low [ ]: TFV 7 µM): 41.47 fmol/mg
persistence of metabolite: still detected post-dose ([2]; colorectal explants): up to 3 days
Cmax fold increase ([3]; NHP vaginal Cmax lower than in colorectal explants): 1.6 fold
AUC3h–15d [3, 17]: 96.03 fmol·days/mg
Cmax [3, 17]: 12.81 fmol/mg
AUC3h–15d [3, 18]: 54.08 fmol·days/mg
Cmax [3, 18]: 7.21 fmol/mg
AUC3h–15d [3, 19]: 134.18 fmol·days/mg
Cmax [3, 19]: 17.89 fmol/mg
AUC3h–15d ([3]; Single gel, Low [ ]: TFV 7 µM): 46.22 fmol·days/mg
Cmax ([3]; Single gel, Low [ ]: TFV 7 µM): 6.16 fmol/mg
persistence of metabolite: detected post-dose ([3]; vaginal tissue): 3 h
TFVdp detection [4]: neither detected
AUC3h-15d [5, 17]: 82.53 fmol·days/mg
Cmax [5, 17]: 20.07 fmol/mg
AUC3h-15d [5, 18]: 41.21 fmol·days/mg
Cmax [5, 18]: 8.36 fmol/mg
AUC3h-15d [5, 19]: 98.95 fmol·days/mg
Cmax [5, 19]: 22.41 fmol/mg
AUC3h-15d ([5]; Single gel, Low [ ]: TFV 7 µM): 35.29 fmol·days/mg
Cmax ([5]; Single gel, Low [ ]: TFV 7 µM): 8.36 fmol/mg
difference in TFVdp concentrations between NHP and humans ([5]; colorectal explants): No significant differences
Compound: CC(Cn1cnc2c(N)ncnc21)OCP(=O)(O)OP(=O)(O)OP(=O)(O)O (stereo in doubt) [TFVdp]

Compound: Maraviroc [MVC]
IC50 (HIV-1YU.2 K65RM184V; day 15): 1.43 ± 0.98 µM
p24 AUC3-15 (HIV-1YU.2 K65RM184V; [20]): 0.82 ± 0.09 µgxd/ml
p24 AUC3-15 (HIV-1YU.2 K65RM184V; [21]): 1.60 ± 0.38 µgxd/ml
potency against the mutant isolates (HIV-1/SIV/SHIV isolates): no impact
IC50 (HIV-1YU.2 K65R; day 15): 2.77 ± 1.12 µM
p24 AUC3-15 (HIV-1YU.2 K65R; [20]): 0.36 ± 0.05 µgxd/ml
p24 AUC3-15 (HIV-1YU.2 K65R; [21]): 0.76 ± 0.10 µgxd/ml
IC50 (SIVmac32H K65RM184V [6]; NHP vaginal explants, day 15): 3.31 ± 1.68 µM
p27 AUC3-15 (SIVmac32H K65RM184V [6]; [20]): 1.33 ± 0.30 µgxd/ml
p27 AUC3-15 (SIVmac32H K65RM184V [6]; [21]): 1.55 ± 0.28 µgxd/ml
IC50 (HIV-1BaL [7]; day 15): 1.26 ± 0.49 µM
p24 AUC3-15 (HIV-1BaL [7]; [20]): 0.59 ± 0.33 µgxd/ml
p24 AUC3-15 (HIV-1BaL [7]; [21]): 2.68 ± 1.79 µgxd/ml
IC50 (HIV-1BaL [8]; day 15): 2.85 ± 0.49 µM
p24 AUC3-15 (HIV-1BaL [8]; [20]): 1.32 ± 0.36 µgxd/ml
p24 AUC3-15 (HIV-1BaL [8]; [21]): 2.61 ± 1.35 µgxd/ml
IC50 (SIVmac32H [9]; NHP vaginal explants, day 15): 3.32 ± 3.19 µM
p27 AUC3-15 (SIVmac32H [9]; [20]): 1.26 ± 0.24 µgxd/ml
p27 AUC3-15 (SIVmac32H [9]; [21]): 1.45 ± 0.28 µgxd/ml
IC50 (HIV-1YU.2 M184V; day 15): 1.24 ± 1.88 µM
p24 AUC3-15 (HIV-1YU.2 M184V; [20]): 0.26 ± 0.13 µgxd/ml
p24 AUC3-15 (HIV-1YU.2 M184V; [21]): 0.70 ± 0.11 µgxd/ml
IC50 (SIVmac32H [10]; [22]): 1.96 ± 1.3 µM
p27 AUC3-15 (SIVmac32H [10]; [20]): 2.42 ± 0.53 µgxd/ml
p27 AUC3-15 (SIVmac32H [10]; [21]): 6.12 ± 1.35 µgxd/ml
IC50 (HIV-1YU.2; day 15): 1.15 ± 0.84 µM
p24 AUC3-15 (HIV-1YU.2; [20]): 1.60 ± 0.57 µgxd/ml
p24 AUC3-15 (HIV-1YU.2; [21]): 9.15 ± 5.28 µgxd/ml
IC50 (SIVmac32H K65RM184V [11]; [22]): 1.98 ± 1.07 µM
p27 AUC3-15 (SIVmac32H K65RM184V [11]; [20]): 1.33 ± 0.22 µgxd/ml
p27 AUC3-15 (SIVmac32H K65RM184V [11]; [21]): 1.65 ± 0.32 µgxd/ml
IC50 (RT-SHIV [12]; [22]): 2.32 ± 0.78 µM
p27 AUC3-15 (RT-SHIV [12]; [20]): 2.85 ± 2.01 µgxd/ml
p27 AUC3-15 (RT-SHIV [12]; [21]): 5.25 ± 3.12 µgxd/ml
inhibitory potency against Env-mutated HIV-1YU.2 [13]: no reduction of inhibitory potency
IC50 (SIVmac32H [14]; NHP cervical explants, day 15): 2.74 ± 1.18 µM
p27 AUC3-15 (SIVmac32H [14]; [20]): 1.27 ± 0.35 µgxd/ml
p27 AUC3-15 (SIVmac32H [14]; [21]): 1.42 ± 0.44 µgxd/ml
IC50 (SIVmac32H K65RM184V [15]; NHP cervical explants, day 15): 4.57 ± 2.92 µM
p27 AUC3-15 (SIVmac32H K65RM184V [15]; [20]): 1.37 ± 0.30 µgxd/ml
p27 AUC3-15 (SIVmac32H K65RM184V [15]; [21]): 1.62 ± 0.33 µgxd/ml
IC50 (RT-SHIV [16]; NHP vaginal explants, day 15): 2.56 ± 1.59 µM
p27 AUC3-15 (RT-SHIV [16]; [20]): 1.27 ± 0.28 µgxd/ml
p27 AUC3-15 (RT-SHIV [16]; [21]): 1.54 ± 0.31 µgxd/ml
